One assay has as its target Jak2 tyrosine kinase (Homo sapiens (Human), UniProt O60674). As to the kind of experiment: Jak2 Tyrosine Kinase Assay. The class given is biochemical. Particulars: for pIC50: Jak2 tyrosine kinase, ATP 30 μM.
The target of another assay is human recombinant Btk (Homo sapiens (Human), UniProt Q06187). As to the kind of experiment: Human Recombinant Btk Enzyme Assay. Format: biochemical.
Assay [1] relates to CD69 expression on B cells in human whole blood. As to the kind of experiment: Whole Blood Assay of BCR-Stimulated CD69 Expression on B Cells. Format: cell-based.

This is an account of results in patent US9850258B2, “Substituted tetrahydrocarbazole and carbazole carboxamide compounds” (BRISTOL-MYERS SQUIBB COMPANY, priority 2013, dated 2017).

Molecules are shown by their SMILES. pIC50: −log10 of the molar value. Read-outs that look alike come from different tables or passages of the source. Some results are limits rather than exact numbers.

Sequence of Jak2 tyrosine kinase (O60674 whole entry): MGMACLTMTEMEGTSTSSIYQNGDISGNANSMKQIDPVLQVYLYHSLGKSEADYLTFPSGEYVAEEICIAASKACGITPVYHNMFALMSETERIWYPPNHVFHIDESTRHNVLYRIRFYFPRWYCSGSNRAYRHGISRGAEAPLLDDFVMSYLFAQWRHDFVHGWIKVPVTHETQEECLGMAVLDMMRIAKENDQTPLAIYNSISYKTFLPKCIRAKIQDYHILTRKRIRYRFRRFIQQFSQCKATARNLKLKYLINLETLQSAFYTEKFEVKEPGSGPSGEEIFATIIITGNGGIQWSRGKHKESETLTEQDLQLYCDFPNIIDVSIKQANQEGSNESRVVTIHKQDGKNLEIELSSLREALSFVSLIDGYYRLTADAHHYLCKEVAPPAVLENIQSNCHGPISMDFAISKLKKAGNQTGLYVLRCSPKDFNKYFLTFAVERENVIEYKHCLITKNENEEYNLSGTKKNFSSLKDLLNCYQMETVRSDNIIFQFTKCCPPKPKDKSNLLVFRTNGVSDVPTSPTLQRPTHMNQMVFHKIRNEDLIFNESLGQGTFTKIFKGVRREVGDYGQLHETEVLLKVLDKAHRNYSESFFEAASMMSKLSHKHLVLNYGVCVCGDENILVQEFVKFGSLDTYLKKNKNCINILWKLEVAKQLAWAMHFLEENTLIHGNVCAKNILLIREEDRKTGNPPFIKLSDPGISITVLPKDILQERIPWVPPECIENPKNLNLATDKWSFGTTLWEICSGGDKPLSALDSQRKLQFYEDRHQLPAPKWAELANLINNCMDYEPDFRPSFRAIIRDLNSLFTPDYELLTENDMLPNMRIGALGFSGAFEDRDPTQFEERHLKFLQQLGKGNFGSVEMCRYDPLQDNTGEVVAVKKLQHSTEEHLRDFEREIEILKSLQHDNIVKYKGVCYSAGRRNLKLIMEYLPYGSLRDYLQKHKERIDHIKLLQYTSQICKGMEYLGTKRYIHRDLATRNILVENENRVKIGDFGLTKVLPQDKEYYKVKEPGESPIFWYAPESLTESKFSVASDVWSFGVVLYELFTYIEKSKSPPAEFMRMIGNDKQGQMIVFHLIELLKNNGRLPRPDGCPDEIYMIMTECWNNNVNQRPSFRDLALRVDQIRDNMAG
Sequence of human recombinant Btk (Q06187 whole entry): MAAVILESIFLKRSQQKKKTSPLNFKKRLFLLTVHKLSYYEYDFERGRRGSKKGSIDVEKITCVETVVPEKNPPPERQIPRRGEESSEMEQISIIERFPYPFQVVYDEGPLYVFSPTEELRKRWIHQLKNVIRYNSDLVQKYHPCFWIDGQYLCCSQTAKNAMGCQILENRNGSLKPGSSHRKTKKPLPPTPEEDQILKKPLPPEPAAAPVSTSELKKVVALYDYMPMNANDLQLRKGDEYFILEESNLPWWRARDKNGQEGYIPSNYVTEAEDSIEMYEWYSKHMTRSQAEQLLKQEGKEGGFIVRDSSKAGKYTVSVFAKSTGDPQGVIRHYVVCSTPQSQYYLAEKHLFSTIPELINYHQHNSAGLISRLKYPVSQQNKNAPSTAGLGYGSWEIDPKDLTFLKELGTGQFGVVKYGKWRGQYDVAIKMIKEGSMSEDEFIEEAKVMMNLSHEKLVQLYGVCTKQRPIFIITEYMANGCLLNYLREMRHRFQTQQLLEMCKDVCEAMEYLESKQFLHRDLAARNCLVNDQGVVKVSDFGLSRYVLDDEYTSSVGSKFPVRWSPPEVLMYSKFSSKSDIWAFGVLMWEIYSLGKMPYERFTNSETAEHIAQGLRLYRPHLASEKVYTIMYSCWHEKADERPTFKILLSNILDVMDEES

Regarding `Cc1c(-c2c(Cl)cc(C(N)=O)c3[nH]c4cc(C(C)(C)O)ccc4c23)cccc1-n1c(=O)c2ccc(F)cc2n(C)c1=O` [Example 9, 3-Chloro-4-(R)-(3-(7-fluoro-1-methyl-2,4-dioxo-1,2-dihydroquinazolin-3(4H)-yl)-2-methylphenyl)-7-(2-hydroxypropan-2-yl)-9H-carbazole-1-carboxamide], the pIC50 (commonly the negative decadic logarithm of the IC50, by convention in mol/L) against Jak2 tyrosine kinase was under 5.70; on human recombinant Btk, 9.21. For the same compound, on Jak2 tyrosine kinase (selectivity of Btk over Jak2), the “Ratio of Jak2/Btk IC50 values” is recorded as over 3200.
For `Cn1c(=O)n(-c2cccc(-c3c(Cl)cc(C(N)=O)c4[nH]c5cc(C(C)(C)O)ccc5c34)c2Cl)c(=O)c2ccccc21` [Example 42, 3-Chloro-4-(2-chloro-3-(1-methyl-2,4-dioxo-1,2-dihydroquinazolin-3(4H)-yl)phenyl)-7-(2-hydroxypropan-2-yl)-9H-carbazole-1-carboxamide], at human recombinant Btk, the pIC50 is 8.70.
On to `Cc1c(-c2c(Cl)cc(C(N)=O)c3[nH]c4cc(C(C)(C)O)ccc4c23)cccc1-n1c(=O)c2cccc(C)c2n(C)c1=O` [Example 4, 3-Chloro-4-(R)-(3-(1,8-dimethyl-2,4-dioxo-1,2-dihydroquinazolin-3(4H)-yl)-2-methylphenyl)-7-(2-hydroxypropan-2-yl)-9H-carbazole-1-carboxamide], for which the pIC50 was 6.46 at Jak2 tyrosine kinase and 8.89 at human recombinant Btk. The “Ratio of Jak2/Btk IC50 values” on Jak2 tyrosine kinase (selectivity of Btk over Jak2) is reported as 270.
`Cc1c(-c2c(F)cc(C(N)=O)c3[nH]c4cc(C(C)(C)O)ccc4c23)cccc1-n1c(=O)c2cccc(F)c2n(C)c1=O` [Example 17, 3-Fluoro-4-(3-(8-fluoro-1-methyl-2,4-dioxo-1,2-dihydroquinazolin-3(4H)-yl)-2-methylphenyl)-7-(2-hydroxypropan-2-yl)-9H-carbazole-1-carboxamide] had a pIC50 at Jak2 tyrosine kinase of 6.77.
Take `Cc1c(-c2c(Cl)cc(C(N)=O)c3[nH]c4cc(C(C)(C)O)ccc4c23)cccc1-n1c(=O)ccn(-c2ccc(F)cc2)c1=O` [Example 24, 3-Chloro-4-(R)-(3-(3-(4-fluorophenyl)-2,6-dioxo-2,3-dihydropyrimidin-(6H)-yl)-2-methylphenyl)-7-(2-hydroxypropan-2-yl)-9H-carbazole-1-carboxamide]: the pIC50 at Jak2 tyrosine kinase is 5.74; on human recombinant Btk, 9.48. In addition, the “Ratio of Jak2/Btk IC50 values” on Jak2 tyrosine kinase (selectivity of Btk over Jak2) amounted to 5500.
Regarding `Cc1c(-c2c(Cl)cc(C(N)=O)c3[nH]c4cc(C(C)(C)O)ccc4c23)cccc1-n1c(=O)ccn(-c2ccc(F)cc2)c1=O` [Example 23, 3-Chloro-4-(3-(3-(4-fluorophenyl)-2,6-dioxo-2,3-dihydropyrimidin-1(6H)-yl)-2-methylphenyl)-7-(2-hydroxypropan-2-yl)-9H-carbazole-1-carboxamide], the values for the pIC50 against Jak2 tyrosine kinase and at human recombinant Btk were 6.36 and 9.36, respectively. Further, the “Ratio of Jak2/Btk IC50 values” on Jak2 tyrosine kinase (selectivity of Btk over Jak2) worked out at 1000.
Regarding `Cc1c(-c2c(F)cc(C(N)=O)c3[nH]c4cc(C(C)(C)O)ccc4c23)cccc1-n1c(=O)[nH]c2c(F)cccc2c1=O` [Example 20, 3-Fluoro-4-(3-(8-fluoro-2,4-dioxo-1,2-dihydroquinazolin-3(4H)-yl)-2-methylphenyl)-7-(2-hydroxypropan-2-yl)-9H-carbazole-1-carboxamide], the pIC50 was 5.92 against Jak2 tyrosine kinase and 9.34 at human recombinant Btk. Moreover, the “Ratio of Jak2/Btk IC50 values” at Jak2 tyrosine kinase (selectivity of Btk over Jak2) is on record as 2600.
`Cn1c(=O)n(-c2cccc(-c3c(Cl)cc(C(N)=O)c4[nH]c5cc(C(C)(C)O)ccc5c34)c2Cl)c(=O)c2ccccc21` [Example 43, 3-Chloro-4-(R)-(2-chloro-3-(1-methyl-2,4-dioxo-1,2-dihydroquinazolin-3(4H)-yl)phenyl)-7-(2-hydroxypropan-2-yl)-9H-carbazole-1-carboxamide]: the pIC50 on human recombinant Btk was 9.33.
Turning to `Cc1c(-c2c(Cl)cc(C(N)=O)c3[nH]c4cc(C(C)(C)O)ccc4c23)cccc1-n1c(=O)[nH]c2c(F)cc(F)cc2c1=O` (racemic) [Example 10, 3-Chloro-4-(RS)-(3-(RS)-(6,8-difluoro-2,4-dioxo-1,2-dihydroquinazolin-3(4H)-yl)-2-methylphenyl)-7-(2-hydroxypropan-2-yl)-9H-carbazole-1-carboxamide], the pIC50 at Jak2 tyrosine kinase is under 5.70; on human recombinant Btk it was 9.08. The “Ratio of Jak2/Btk IC50 values” at Jak2 tyrosine kinase (selectivity of Btk over Jak2) is reported as over 2400.
For `Cc1c(-c2c(Cl)cc(C(N)=O)c3[nH]c4cc(C(C)(C)O)ccc4c23)cccc1-n1c(=O)c2cc(F)ccc2n(C)c1=O` [Example 8, 3-Chloro-4-(R)-(3-(6-fluoro-1-methyl-2,4-dioxo-1,2-dihydroquinazolin-3(4H)-yl)-2-methylphenyl)-7-(2-hydroxypropan-2-yl)-9H-carbazole-1-carboxamide] the same measures were under 5.70, 9.19 and over 3100.
The corresponding values for `Cc1c(-c2c(Cl)cc(C(N)=O)c3[nH]c4cc(C(C)(C)O)ccc4c23)cccc1-n1c(=O)c2ccccc2n(C)c1=O` [Example 3, 3-Chloro-7-(2-hydroxypropan-2-yl)-4-(R)-(2-methyl-3-(1-methyl-2,4-dioxo-1,2-dihydroquinazolin-3(4H)-yl)phenyl)-9H-carbazole-1-carboxamide] are 5.70, 9.00 and 2000.
Turning to `Cc1nc(C(N)=O)c2[nH]c3cc(C(C)(C)O)ccc3c2c1-c1cccc(-n2cnc3ccccc3c2=O)c1C` [Comparative Example 76, 7-(2-Hydroxypropan-2-yl)-3-methyl-4-(2-methyl-3-(4-oxoquinazolin-3(4H)-yl)phenyl)-9H-pyrido[3,4-b]indole-1-carboxamide, reference compound], the “Ratio of Jak2/Btk IC50 values” on Jak2 tyrosine kinase (kinase selectivity of Btk over Jak2, larger value = more selective for Btk) is 29.
`CC(C)(O)c1ccc2c(c1)[nH]c1c(C(N)=O)cc(Cl)c(-c3cccc(-n4c(=O)[nH]c5c(F)cccc5c4=O)c3Cl)c12` [Example 47, 3-Chloro-4-(R)-(2-chloro-3-(8-fluoro-2,4-dioxo-1,2-dihydroquinazolin-3(4H)-yl)phenyl)-7-(2-hydroxypropan-2-yl)-9H-carbazole-1-carboxamide]: the negative-log IC50 (pIC50) against Jak2 tyrosine kinase was 5.74; at human recombinant Btk, 9.46. Moreover, the “Ratio of Jak2/Btk IC50 values” on Jak2 tyrosine kinase (selectivity of Btk over Jak2) is on record as 5100.
As for `Cc1c(-c2c(F)cc(C(N)=O)c3[nH]c4cc(C(C)(C)O)ccc4c23)cccc1-n1c(=O)[nH]c2c(F)cc(F)cc2c1=O` (single isomer, unassigned) [Example 73], the pIC50 in assay [1] (Homo sapiens, B-cell) is 7.68.
Consider `Cn1c(=O)n(-c2cccc(-c3c(Cl)cc(C(N)=O)c4[nH]c5cc(C(C)(C)O)ccc5c34)c2Cl)c(=O)c2cccc(F)c21` [Example 44, 3-Chloro-4-(2-chloro-3-(8-fluoro-1-methyl-2,4-dioxo-1,2-dihydroquinazolin-3(4H)-yl)phenyl)-7-(2-hydroxypropan-2-yl)-9H-carbazole-1-carboxamide], for which, on human recombinant Btk, the pIC50 is 8.33.
On to `Cc1c(-c2c(F)cc(C(N)=O)c3[nH]c4cc(C(C)(C)O)ccc4c23)cccc1-n1c(=O)c2cccc(F)c2n(C)c1=O` (atropisomer, axis not shown) [Example 18, 3-Fluoro-4-(3-(S)-(8-fluoro-1-methyl-2,4-dioxo-1,2-dihydroquinazolin-3(4H)-yl)-2-methylphenyl)-7-(2-hydroxypropan-2-yl)-9H-carbazole-1-carboxamide], for which the pIC50 on Jak2 tyrosine kinase was 5.66.
Take `Cc1c(-c2c(F)cc(C(N)=O)c3[nH]c4cc(C(C)(C)O)ccc4c23)cccc1-n1c(=O)c2cccc(F)c2n(C)c1=O` (atropisomer, axis not shown) [Example 19, 3-Fluoro-4-(R)-(3-(S)-(8-fluoro-1-methyl-2,4-dioxo-1,2-dihydroquinazolin-3(4H)-yl)-2-methylphenyl)-7-(2-hydroxypropan-2-yl)-9H-carbazole-1-carboxamide]: the pIC50 against Jak2 tyrosine kinase was 5.70; in assay [1], 7.04.
For `COc1cccc2c(=O)n(-c3cccc(-c4c(Cl)cc(C(N)=O)c5[nH]c6cc(C(C)(C)O)ccc6c45)c3C)c(=O)n(C)c12` [Example 7, 3-Chloro-7-(2-hydroxypropan-2-yl)-4-(R)-(3-(8-methoxy-1-methyl-2,4-dioxo-1,2-dihydroquinazolin-3(4H)-yl)-2-methylphenyl)-9H-carbazole-1-carboxamide], the pIC50 is 5.80 against Jak2 tyrosine kinase and 9.09 at human recombinant Btk. The “Ratio of Jak2/Btk IC50 values” at Jak2 tyrosine kinase (selectivity of Btk over Jak2) worked out at 2000.
In the case of `Cc1cc(C(N)=O)c2[nH]c3cc(C(C)(C)O)ccc3c2c1-c1cccc(-n2c(=O)c3cccc(F)c3n(C)c2=O)c1C` (atropisomer, axis not shown) [Example 29, 4-(R)-(3-(S)-(8-Fluoro-1-methyl-2,4-dioxo-1,2-dihydroquinazolin-3(4H)-yl)-2-methylphenyl)-7-(2-hydroxypropan-2-yl)-3-methyl-9H-carbazole-1-carboxamide], the pIC50 on Jak2 tyrosine kinase was 6.10; on human recombinant Btk, 9.18.
